The values that follow come from patent publication US20250145561A1, “4-SUBSTITUTED-PHENYL ACETAMIDES AND ARYLUREAS AS AGONISTS FOR THE ORPHAN RECEPTOR GPR88” (RESEARCH TRIANGLE INSTITUTE, priority 2022, published 2025).

In the test the target is T1, GPR88 (Homo sapiens, UniProt Q9GZN0).
T1 construct: expressed in transfected cells
The test can be described thus: Lance Ultra TR-FRET cAMP assay using stable PPLS-HA-GPR88 CHO cells. In kind it is cell-based. As to conditions: for Emax: CHO; for EC50 / cAMP pEC50: stable PPLS-HA-GPR88 CHO cells; for EC50: value in parentheses beside pEC50; for cAMP pEC50: 300 nM forskolin, mean ± standard error of at least three independent experiments in duplicate. The procedure: The compounds of the present disclosure offer potent agonism to the orphan receptor GPR88. As such, the compounds of the present disclosure provide therapeutic potential for the treatment of striatal associated disorders such as Parkinson's disease, schizophrenia, and alcohol addiction. All compounds were evaluated for the GPR88 agonist activity in the inventors' previously established in vitro GPR88 Lance TR-FRET cAMP assay. See, supra, Jin et al., 2018, Rahman et al., 2020, and Rahman et al., 2021. As will be described, the TR-FRET signal was converted to fmol cAMP by interpolating from the standard cAMP curve. Fmol cAMP was plotted against the log of compound concentration and data were fit to a three-parameter logistic curve to generate maximum response (Emax) and EC50 values.
Lance™ Ultra cAMP assay using stable PPLS-HA-GPR88 CHO cells. All cAMP assays were performed using the inventors' previously published methods. […] ACS Chemical Neuroscience 2016, 7, 1418-1432, which is incorporated by reference herein with regard to such teaching. Stimulation buffer containing 1× Hank's Balanced Salt Solution (HBSS), 5 mM HEPES, 0.1% BSA stabilizer, and 0.5 mM final IBMX was prepared and titrated to pH 7.4 at room temperature. Serial dilutions of the test compounds (5 μL) and 300 nM forskolin (5 μL), both prepared at 4× the desired final concentration in 2% DMSO/stimulation buffer, were added to a 96-well white ½ area microplate (PerkinElmer). A cAMP standard curve was prepared at 4× the desired final concentration in stimulation buffer and 5 μL was added to the assay plate. Stable PPLS-HA-GPR88 CHO cells were lifted with versene and spun at 270 g for 10 minutes. The cell pellet was resuspended in stimulation buffer and 4,000 cells (10 μL) were added to each well except wells containing the cAMP standard curve. After incubating for 30 min at room temperature, Eu-cAMP tracer and uLIGHT-anti-cAMPworking solutions were added per the manufacturer's instructions. After incubation at room temperature for 1 hour, the TR-FRET signal (ex 337 nm) was read on a CLARIOstar multimode plate reader (BMG Biotech, Cary, NC).
Data Analysis. The TR-FRET signal (665 nm) was converted to fmol cAMP by interpolating from the standard cAMP curve. Fmol cAMP was plotted against the log of compound concentration and data were fit to a three-parameter logistic curve to generate EC50 values (Prism, version 6.0, GraphPad Software, Inc., San Diego, CA).

T1 sequence (Q9GZN0 whole entry): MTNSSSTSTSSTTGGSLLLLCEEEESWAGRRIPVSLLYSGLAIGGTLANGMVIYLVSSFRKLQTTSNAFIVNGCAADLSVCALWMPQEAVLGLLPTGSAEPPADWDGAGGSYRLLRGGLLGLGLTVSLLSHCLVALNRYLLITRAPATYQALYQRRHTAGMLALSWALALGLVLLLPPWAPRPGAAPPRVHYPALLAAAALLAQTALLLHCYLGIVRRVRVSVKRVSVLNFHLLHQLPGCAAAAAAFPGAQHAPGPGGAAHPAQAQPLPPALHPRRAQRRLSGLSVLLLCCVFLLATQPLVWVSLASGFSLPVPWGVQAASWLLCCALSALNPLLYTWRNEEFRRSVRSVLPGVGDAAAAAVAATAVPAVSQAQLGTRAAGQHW

In the case of `CCCc1ccc(-c2ccc(C(C(=O)N[C@H](C)c3ccccc3)C(=O)OC)cc2)cc1` (mixture of isomers) [Compound 28, Methyl 2-{[(1 R)-1-Phenylethyl]carbamoyl}-2-{4′-propyl-[1,1′-biphenyl]-4-yl}acetate], the Emax stood at 99 ± 6% and the 50% effective concentration (EC50) is 1290 nM.

As for `CCCc1ccc(-c2ccc(C(C(=O)NC)C(=O)N[C@H](C)c3ccccc3)cc2)cc1` (mixture of isomers) [Compound 29, N-Methyl-N′-[(1 R)-1-phenylethyl]-2-{4′-propyl-[1,1′-biphenyl]-4-yl}propanediamide], the Emax stood at 105 ± 2% and the EC50 is 1380 nM.

Regarding `CCCC(C)COc1ccc([C@H](CO)C(=O)N[C@H](C)c2ccccc2)cc1` (stereo partly drawn) [Compound 3, (2R)-3-Hydroxy-2-{4-[(2-methylpentyl)oxy]phenyl}-N-[(1 R)-1-phenylethyl]propanamide], the maximal response (Emax) turned out to be 77 ± 4%.

As to `CCCC(C)COc1ccc([C@@H](CO)C(=O)N[C@H](C)c2ccccc2)cc1` (stereo partly drawn) [Compound 4, (2S)-3-Hydroxy-2-{4-[(2-methylpentyl)oxy]phenyl}-N-[(1 R)-1-phenylethyl]propenamide], the Emax is 94 ± 13% and the EC50 was 200 nM.

As to `CCCC(C)COc1ccc([C@@H](CO)C(=O)N[C@@H](C)c2ccccc2)cc1` (stereo partly drawn) [Compound 5, (2S)-3-Hydroxy-2-{4-[(2-methylpentyl)oxy]phenyl}-N-[(1S)-1-phenylethyl]propenamide], the “cAMP pEC50” value is reported as “Inactive”.

As to `CCCC(C)COc1ccc([C@H](CO)C(=O)N[C@@H](C)c2ccccc2)cc1` (stereo partly drawn) [Compound 6, (2R)-3-Hydroxy-2-{4-[(2-methylpentyl)oxy]phenyl}-N-[(1 S)-1-phenylethyl]propenamide], the “cAMP pEC50” value was “Inactive”.

In the case of `CC[C@H](C)COc1ccc([C@@H](CO)C(=O)N[C@H](C)c2ccccc2)cc1` [Compound 7, (2S)-3-Hydroxy-2-{4-[(2S)-2-methylbutoxy]phenyl}-N-[(1 R)-1-phenylethyl]propenamide], the Emax came out at 88 ± 7% and the EC50 was 2000 nM.

On to `CC[C@@H](C)COc1ccc([C@@H](CO)C(=O)N[C@H](C)c2ccccc2)cc1` [Compound 8, (2S)-3-Hydroxy-2-{4-[(2R)-2-methylbutoxy]phenyl}-N-[(1 R)-1-phenylethyl]propenamide], for which the Emax stood at 96 ± 13% and the EC50 was 3090 nM.

For `CCCC(C)COc1ccc([C@@H](CO)C(=O)N[C@H](C)c2ccccc2C)cc1` (stereo partly drawn) [Compound 9, (2S)-3-Hydroxy-2-{4-[(2-methylpentyl)oxy]phenyl}-N-[(1 R)-1-(2-methylphenyl)ethyl]propenamide], the Emax is 48 ± 8%.

As for `CCCC(C)COc1ccc([C@@H](CO)C(=O)N[C@H](C)c2cccc(C)c2)cc1` (stereo partly drawn) [Compound 10, (2S)-3-Hydroxy-2-{4-[(2-methylpentyl)oxy]phenyl}-N-[(1 R)-1-(3-methylphenyl)ethyl]propenamide], the Emax stood at 100 ± 3%.

Compound `CCCC(C)COc1ccc([C@@H](CO)C(=O)N[C@H](C)c2ccc(C)cc2)cc1` (stereo partly drawn) [Compound 11, (2S)-3-Hydroxy-2-{4-[(2-methylpentyl)oxy]phenyl}-N-[(1 R)-1-(4-methylphenyl)ethyl]propenamide] displayed an Emax of 102 ± 7%.

Regarding `CCCC(C)COc1ccc([C@@H](CO)C(=O)N[C@H](C)c2ccc(F)cc2)cc1` (stereo partly drawn) [Compound 12, (2S)—N-[(1 R)-1-(4-Fluorophenyl)ethyl]-3-hydroxy-2-{4-[(2-methylpentyl)oxy]phenyl}propenamide], the Emax was determined as 92 ± 3%.

`CCCC(C)COc1ccc([C@@H](CO)C(=O)N[C@H](C)c2ccc(OC)cc2)cc1` (stereo partly drawn) [Compound 13, (2S)-3-Hydroxy-N-[(1 R)-1-(4-methoxyphenyl)ethyl]-2-{4-[(2-methylpentyl)oxy]phenyl}propenamide] gave a maximal effect (Emax) of 94 ± 3%.

In the case of `CCCC(C)COc1ccc([C@@H](CO)C(=O)Nc2ccccc2)cc1` (stereo partly drawn) [Compound 14, (2S)-3-Hydroxy-2-{4-[(2-methylpentyl)oxy]phenyl}-N-phenylpropanamide], the “cAMP pEC50” value is on record as “Inactive”.

In the case of `CCCC(C)COc1ccc([C@@H](CO)C(=O)NCc2ccccc2)cc1` (stereo partly drawn) [Compound 15, (2S)—N-Benzyl-3-hydroxy-2-{4-[(2-methylpentyl)oxy]phenyl}propenamide], the Emax came to 99 ± 9%.

The compound `CCCC(C)COc1ccc([C@@H](CO)C(=O)NCCc2ccccc2)cc1` (stereo partly drawn) [Compound 16, (2S)-3-Hydroxy-2-{4-[(2-methylpentyl)oxy]phenyl}-N-(2-phenylethyl)propenamide] came in with an Emax of 97 ± 5%.

`CCCC(C)COc1ccc([C@@H](CO)C(=O)N[C@H](CC)c2ccccc2)cc1` (stereo partly drawn) [Compound 17, (2S)-3-Hydroxy-2-{4-[(2-methylpentyl)oxy]phenyl}-N-[(1 R)-1-phenylpropyl]propenamide] came in with an Emax of 102 ± 8%.

In turn, `CCCC(C)COc1ccc([C@@H](CO)C(=O)N[C@H](COC)c2ccccc2)cc1` (stereo partly drawn) [Compound 18, (2S)-3-Hydroxy-N-[(1 S)-2-methoxy-1-phenylethyl]-2-{4-[(2-methylpentyl)oxy]phenyl}propenamide] came in with an Emax of 91 ± 4%.

For `CCCC(C)COc1ccc([C@@H](CO)C(=O)NC(C)(C)c2ccccc2)cc1` (stereo partly drawn) [Compound 19, (2S)-3-Hydroxy-2-{4-[(2-methylpentyl)oxy]phenyl}-N-(2-phenylpropan-2-yl)propenamide], the Emax came to 83 ± 2%, the “cAMP pEC50” value is 5.90 ± 0.05 and the EC50 is 1260 nM.

Consider `CCCC(C)COc1ccc([C@@H](CO)C(=O)NC2(c3ccccc3)CC2)cc1` (stereo partly drawn) [Compound 20, (2S)-3-Hydroxy-2-{4-[(2-methylpentyl)oxy]phenyl}-N-(1-phenylcyclopropyl)propenamide], for which the Emax worked out at 81 ± 8%.

For `CCCC(C)COc1ccc([C@@H](CO)C(=O)N[C@H](C)c2ccccn2)cc1` (stereo partly drawn) [Compound 21, (2S)-3-Hydroxy-2-{4-[(2-methylpentyl)oxy]phenyl}-N-[(1 R)-1-(pyridin-2-yl)ethyl]propenamide], the Emax came out at 93 ± 4%.

In turn, `CCCC(C)COc1ccc([C@@H](CO)C(=O)N[C@H](C)c2ccco2)cc1` (stereo partly drawn) [Compound 22, (2S)—N-[(1 R)-1-(Furan-2-yl)ethyl]-3-hydroxy-2-{4-[(2-methylpentyl)oxy]phenyl}propenamide] yielded an Emax of 108 ± 6%.

For `CCCC(C)COc1ccc([C@@H](CO)C(=O)N[C@H](C)c2cccs2)cc1` (stereo partly drawn) [Compound 23, (2S)-3-Hydroxy-2-{4-[(2-methylpentyl)oxy]phenyl}-N-[(1 R)-1-(thiophen-2-yl)ethyl]propenamide], the Emax amounted to 93 ± 5%.

In the case of `CCCC(C)COc1ccc([C@@H](CO)C(=O)N[C@@H]2C[C@H]2c2ccccc2)cc1` (stereo partly shown) [Compound 24], the Emax was 83 ± 5%.

For `CCCc1ccc(-c2ccc([C@@H](CO)C(=O)N[C@H](C)c3ccccc3)cc2)cc1` [Compound 25, (2S)-3-Hydroxy-N-[(1 R)-1-phenylethyl]-2-{4′-propyl-[1,1′-biphenyl]-4-yl}propenamide], the Emax came to 96 ± 3% and the EC50 is 138 nM.

For `CCCc1ccc(-c2ccc(CC(=O)N[C@H](C)c3ccccc3)cc2)cc1` [Compound 26, N-[(1 R)-1-Phenylethyl]-2-{4′-propyl-[1,1′-biphenyl]-4-yl}acetamide], the Emax was 95 ± 5% and the EC50 was 257 nM.

For the compound `CCCc1ccc(-c2ccc([C@@H](CC)C(=O)N[C@H](C)c3ccccc3)cc2)cc1` [Compound 27, (2R)—N-[(1 R)-1-Phenylethyl]-2-{4′-propyl-[1,1′-biphenyl]-4-yl}butanamide], the maximal effect (Emax) came out at 93 ± 9% and the EC50 is 501 nM.

As for `CCCc1ccc(-c2ccc([C@@H](Cn3cncn3)C(=O)N[C@H](C)c3ccccc3)cc2)cc1` [Compound 30], the Emax was 96 ± 3% and the EC50 was 1100 nM.

For the compound `CCCc1ccc(-c2ccc([C@@H](Cn3ccnn3)C(=O)N[C@H](C)c3ccccc3)cc2)cc1` [Compound 31, (2S)—N-[(1 R)-1-Phenylethyl]-2-{4′-propyl-[1,1′-biphenyl]-4-yl}-3-(1H-1,2,3-triazol-1-yl)propenamide], the Emax stood at 96% and the EC50 is 631 nM.

In the case of `C[C@@H](NC(=O)[C@H](CO)c1ccc(-c2ccc(C3CCC3)cc2)cc1)c1ccccc1` [Compound 32, (2S)-2-{4′-Cyclobutyl-[1,1′-biphenyl]-4-yl}-3-hydroxy-N-[(1 R)-1-phenylethyl]propenamide], the Emax was determined as 74 ± 7% and the EC50 was 355 nM.
